“And” between values parts separate entries of the source, which are not always exact repeats. Equal entries are not always repeated. Marks after values point to notes of the source that are not given here.

For data set [1] the following is noted: surfactants of Table 2; cited from earlier work.
For data set [2] the following is noted: values from literature; cited from earlier work.
Data set [3] can be described thus: Interaction of 1% w/v lecithin with individual polyphenols, depletion from solution by HPLC. The conditions noted are these: pH 2.43, anthocyanins depleted from single-strength cranberry juice, others from aqueous solution. As for the experimental part: Aqueous polyphenol solutions near saturation were prepared by dissolving the individual polyphenols in 50 mL ultrapure water. Depends on their solubility in water, the polyphenols solutions were made in different concentrations. […] The pH of the solution was then adjusted to ˜2.43 using 6 M HCl in order to approximate the pH of juice. The adjusted solution was centrifuged at 3220×g for 20 min to remove any undissolved solids. Next, 1% w/v lecithin was added to 10 mL of the supernatant containing the polyphenols or the phenolic acids. The mixture was vortexed for 1 min and then centrifuged at 3220×g for 20 min to pellet any precipitate. The supernatant was transferred to a 2 mL microcentrifuge tube and was centrifuged for another 20 min at 21130×g before HPLC analysis. The depletion of individual polyphenol content expressed as a percent was determined according to the following equation: Polyphenol and phenolic acid content remaining in the supernatant were quantitated by reverse phase HPLC using a Dionex Ultimate 3000 HPLC equipped with an LPG-3400 quaternary pump, a WPS-3000 analytical autosampler, a DAD-3000 diode array detector, and an FLD-3100 fluorescence detector. […] Separation was with formic acid:water (5:95, v/v) (A) and methanol (B). The flow rate was set to 1 mL/min. The gradient was initially 5% B for 1 min, then increased to 35% B over 39 min, from 35% to 95% B over the next 10 min, and held constant at 95% B for 5 min, then decreased to 5% B over 2 min, and re-equilibrated at 5% B for the remaining 8 min. The column oven was set to 30° C. The absorbance was monitored at 254, 280, 370 and 520 nm. […] The gallic acid peaks in the 280 nm chromatogram was quantitated on the basis of authentic external standards. […] The flow rate was set to 0.5 mL/min. The gradient began at 15% B for 2 min, increased to 90% B over 6 min, then decreased to 15% B over 1 min and re-equilibrated at 15% B for the remaining 1 min. The column oven was set to 25° C. We collected absorbance data at 254, 280, 370 and 520 nm. All the peaks were identified in comparison to authentic external standards.

A short description of data set [4]: Depletion of monomeric anthocyanins in diluted cranberry juice by surfactants, lecithins or phospholipids (pH differential method). As for the experimental part:
Classic Mash Cranberry Juice Concentrate with essence returned was received frozen from the supplier (Ocean Spray Cranberries Inc., Lakeville-Middleboro, Mass., U.S.A.). The concentrate came at 50.0° Brix from manufacturer. It was immediately thawed, aliquoted and stored at −20° C. until use. Prior to experiment use, the concentrate was thawed, brought to room temperature, and diluted to 7.5° Brix according to the manufacture specification.
Individual surfactants/phospholipids were added to 10 mL juice samples at a final concentration of 0.01 M. Varying amounts of lecithin were added to 10 mL juice samples at 0.05, 0.1, 0.5, 1, 2, 3, 4, or 5% w/v. Lecithin with different HLB values were added to 10 mL juice samples at 1, 2, 3, 4, or 5% w/v. All mixtures were then vortexed for 3 min and then centrifuged at 3220×g for 20 min. The centrifugation step was repeated with the supernatants. All procedures were carried out at ambient temperatures unless otherwise specified.
Monomeric anthocyanin (MA) content was determined by the AOAC pH differential method. Samples were placed in 96-well plates (Thermo Scientific) for spectral acquisition using a SpectraMax Plus Microplate Reader (Molecular Devices, Sunnyvale, Calif., U.S.A.). We used the SoftMax Pro 5.4.4 to scale for pathlength (Molecular Devices, Sunnyvale, Calif., U.S.A.). Juice samples were diluted such that the absorbance at 520 nm was within the linear range of the instrument. Triplicate samples were analyzed, and the average values are reported.
The depletion of MA expressed as a percent was determined according to the following equation: […]

The conditions of data set [5]: cited from earlier work; for pka: phospholipid components of lecithin.
The mark [6] stands for this setting: 0.01M phospholipid in cranberry juice.

Take `CCCCCCCC/C=C\CCCCCCCC(=O)OCC(O)CO` (racemic) [glycerol monooleate]: the HLB value in data set [1] is reported as 3.4.
In the case of `CCCCCCCCCCCCCCCCCC(=O)OCC(O)CO` (racemic) [glycerol monostearate], the HLB value in data set [1] is reported as 3.8.
What is called Log P is the decadic logarithm of the partition coefficient of the neutral form, usually between octanol and water. For `Oc1cc(O)c2c(c1)O[C@H](c1ccc(O)c(O)c1)[C@@H](O)C2` [(+)-catechin], the “Log P” value in data set [2] is 0.51^†. Moreover, the values for the Depletion % in data set [3] and in data set [3] (listed as (+)-Catechin) were 18.4% and 18.4±0.5%, respectively.
`Oc1cc(O)c2cc(O[C@@H]3OC[C@H](O)[C@H](O)[C@H]3O)c(-c3ccc(O)c(O)c3)[o+]c2c1` [cyanidin-3-O-arabinoside]: the Depletion % came to 16.0% in data set [3] and 16.0±6.5% in data set [3] (listed as cyanidin-3-O-arabinose).
Turning to `OC[C@H]1O[C@@H](Oc2cc3c(O)cc(O)cc3[o+]c2-c2ccc(O)c(O)c2)[C@H](O)[C@@H](O)[C@H]1O` [cyanidin-3-O-galactoside], the Depletion % in data set [3] is 49.1±3.5% and 49.1%.
On to `OC[C@H]1O[C@@H](Oc2cc3c(O)cc(O)cc3[o+]c2-c2ccc(O)c(O)c2)[C@H](O)[C@@H](O)[C@@H]1O` [cyanidin-3-O-glucoside], for which the “Log P” value in data set [2] was 0.39^†. For the same compound, the Depletion % in data set [3] turned out to be 45.0%; in data set [3] (listed as Cyanidin-3-O-glucoside) it was 45.0±3.5%.
Consider `Oc1cc(O)c2cc(O[C@H]3OC[C@H](O)[C@H](O)[C@H]3O)c(-c3cc(O)c(O)c(O)c3)[o+]c2c1` [delphinidin-3-O-arabinoside], for which the Depletion % in data set [3] is listed as 11.1%; in data set [3] (listed as Delphinidin-3-O-arabinose), 11.1±4.9%.
As to `O=C(O)c1cc(O)c(O)c(O)c1` [gallic acid], in data set [3], the Depletion % result is “did not induce precipitation of lecithin”.
Consider `O=c1c(-c2ccc(O)cc2)coc2cc(O)cc(O)c12` [genistein], for which the Depletion % in data set [3] is 61.0%; in data set [3] (listed as Genistein) it was 61.0±3.8%.
Consider `CCCCCCCC/C=C\CCCCCCCC(=O)OCC(CO)OC(=O)CCCCCCC/C=C\CCCCCCCC` (stereo not shown) [glycerol dioleate], for which the HLB value in data set [1] was 1.9.
Turning to `CCCCCCCCCCCC(=O)OCC(O)CO` (stereo not shown) [glycerol monolaurate], in data set [1], the HLB value is 5.2.
For the compound `CCCCCCCC/C=C\CCCCCCCC(=O)O` [oleic acid], the HLB value in data set [1] is 1.
With `COc1cc(-c2[o+]c3cc(O)cc(O)c3cc2O[C@@H]2O[C@H](CO)[C@@H](O)[C@H](O)[C@H]2O)ccc1O` [peonidin-3-O-glucoside], in data set [3], the Depletion % is 43.0±4.0% and 43.0%.
In the case of `O=c1c(O[C@@H]2O[C@H](CO)[C@H](O)[C@H](O)[C@H]2O)c(-c2ccc(O)c(O)c2)oc2cc(O)cc(O)c12` [quercetin-3-O-galactoside], the values for the Depletion % in data set [3] and in data set [3] (listed as Quercetin-3-O-galactoside) were 35.4% and 35.4±1.0%, respectively.
Regarding `O=c1c(O)c(-c2ccc(O)c(O)c2)oc2cc(O)cc(O)c12` [quercetin], the “Log P” value in data set [2] is 1.82 ± 0.32. Moreover, the Depletion % in data set [3] is 41.3%; in data set [3] (listed as Quercetin), 41.3±1.8%.
For `Oc1ccc(C=Cc2cc(O)cc(O)c2)cc1` [resveratrol], in data set [2], the “Log P” value is listed as 2.57^†.
Turning to `CCCCCCCCCCCCOS(=O)(=O)[O-].[Na+]` [sodium dodecyl sulfate], in data set [1], the HLB value is 40.
In the case of `CCCCCCCC/C=C\CCCCCCCC(=O)[O-].[Na+]` [sodium oleate], the HLB value in data set [1] is 18.
On to L-a-phosphatidylinositol (soy) [PI], for which the “Depletion % of monomeric anthocyanins” value in data set [4] (setting [6]) was 41.4±8.5% and 41.4 ± 8.5^a %; in data set [4] (0.01M phospholipid in cranberry juice, listed as Phosphatidylinositol (PI)), 41.4±8.5%. In data set [5], the pka was 2.5.
For Phosphatidylcholine (soy) [PC], the “Depletion % of monomeric anthocyanins” value in data set [4] (setting [6]) is 6.69±3.57% and 6.69 ± 3.6^b %. The pka in data set [5] is on record as 1.0.
Turning to Phosphatidylethanolamine (soy) [PE], in data set [4] (setting [6]), the “Depletion % of monomeric anthocyanins” value is 10.4±2.5% and 10.4 ± 2.5^b %. Moreover, in data set [5], the “pKa of the amino group” value is on record as “about 9.5” and the pka was 1.7.
Turning to hexaglycerol dioleate, the HLB value in data set [1] is 9.
Turning to peonidin-3-O-arabinoside, the Depletion % in data set [3] was determined as 10.1%; in data set [3] (listed as peonidin-3-O-arabinose) it was 10.1±6.3%.
Consider peonidin-3-O-galactoside, for which the Depletion % in data set [3] worked out at 42.2%; in data set [3] (listed as Peonidin-3-O-galactoside), 42.2±4.1%.
Regarding sodium stearoyl lactylate, in data set [1], the HLB value is 5.1.
On to sorbitan monostearate, for which the HLB value in data set [1] was 4.7.
Turning to “sorbitan tristearate [sorbitan tristearate (Span 65)]”, the “Depletion % of monomeric anthocyanins” value is recorded as 2.85% in data set [4] (0.01M surfactants in diluted cranberry juice) and “no significant changes” in data set [4] (0.01M surfactants in diluted cranberry juice, listed as sorbitan tristearate).
Turning to triglycerol monostearate, the HLB value in data set [1] is 7.
